Assay results taken from patent US8153784B2, “Imaging of enzyme activity” (The General Hospital Corporation, priority 2004, dated 2012).
Values joined by “and” are separate entries in the source; they are usually repeats but may differ in a detail not shown here. Identical values can stand only once.

Tests used:
[1] = biological target: T1, horseradish peroxidase (HRP) (Armoracia rusticana, UniProt P00433); test: Pseudo-first-order rate constants of HRP-mediated conversion (relaxation times over time, 0.47 T); format: biochemical, horseradish; parameters: purchased Sigma-Aldrich type XII (catalogue number not given)
T1 sequence (P00433 31-338): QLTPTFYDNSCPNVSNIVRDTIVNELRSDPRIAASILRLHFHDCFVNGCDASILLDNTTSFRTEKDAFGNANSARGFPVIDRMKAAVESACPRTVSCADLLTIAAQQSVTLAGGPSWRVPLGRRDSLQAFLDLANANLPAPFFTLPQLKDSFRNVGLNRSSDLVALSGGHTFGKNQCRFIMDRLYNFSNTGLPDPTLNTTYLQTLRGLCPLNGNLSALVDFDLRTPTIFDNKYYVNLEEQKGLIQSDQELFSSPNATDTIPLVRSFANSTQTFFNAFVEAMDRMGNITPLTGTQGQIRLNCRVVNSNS
Procedure: Kinetics of the samples were observed by measuring T1 and T2 at 0.47 T and 40° C. of the samples over at least a 24 hour period. At different time points, 1 M of sodium azide (final concentration=0.17 M) was added to stop the enzyme mediated reaction. The resultant progress curve was fitted with an empirical mathematical model and analyzed according to the Guggenheim method to obtain the pseudo-first-order rate constants (Guggenheim E A. Philos. Mag. 1926; 2:538).
An important property of a suitable substrate for an enzyme is the kinetics of enzymatic reaction. To determine the utility of the paramagnetic complexes as suitable substrates for human myeloperoxidase (MPO), we measured the pseudo-first-order rate constant of these substrates in MPO, and compared to the same substrates' reactions in Horse Radish Peroxidase (HRP) by monitoring the changes in relaxation time over time. […] The results shown were obtained using T1 measurements. T2 measurements yielded nearly identical results. The results are presented as mean±SD. N/A=not applicable.

[2] = biological target: T2, human neutrophil MPO (Homo sapiens, UniProt P05164); test: MPO-mediated polymerization of DOTA(Gd) substrates: T1/T2 relaxivity change; format: biochemical; conditions: for maximum ratio of relaxivity increase between MPO-converted product and substrate: longitudinal and transverse, 1300-1400 U of enzyme activity
T2 construct: purchased BioDesign Inc
Procedure: Reactions with HRP and MPO were carried out at room temperature in the presence of 0.5-1 mM substrate dissolved in 0.5 ml PBS containing H2O2 (2 mM). Reaction was initiated by adding an aliquot containing the enzyme (either HRP or MPO) and vortexing. After at least a 30 min incubation period T1 was measured using inversion-recovery pulse sequence Bruker Minispec (Buker Analytics, North Bellirica Mass.) at 0.47 T (20 MHz). Size-exclusion HPLC of reaction products was performed on TSK G3000SWXL macroporous column (Supelco) eluted with 0.1 M triethylammonium acetate, pH 7.0 at 1 ml/min.
(§1) Standard 96-well plates were prepared and imaged on a 1.5 T whole body clinical General Electric Signa MRI scanner utilizing a standard 3 inch surface coil. Inversion recovery sequences were used to measure T1 relaxation and spin echo sequences were utilized to measure T2 relaxation. T2 weighted images were obtained with TR=5000 ms and TE=100 ms with a fast spin echo sequence. T1 weighted images were obtained with spin echo sequences with the following parameters: TR=100, 200, 350, or 500, TE=11. For the Matrigel™ experiments, a relatively T2 weighted image was obtained at TR=300 ms and TE=200 ms. Single-exponential models were used to obtain T1 and T2. The relaxivities were computed by normalizing relaxation rates to the concentration of gadolinium in each sample, obtained by inductive coupled plasma (ICP) analysis performed by Galbraith Laboratories.
To determine the effect of myeloperoxidase on the substrates, we performed T1 and T2 relaxivity measurements in aqueous solutions, with and without MPO and hydrogen peroxide, at 0.47 T and 1.5 T (the results are summarized in FIGS. 3A and 3B for tyramide-DOTA(Gd) and FIGS. 4A and 4B for 5-HT-DOTA(Gd)). For reference, the two substrates were also reacted with HRP (solid symbols in FIGS. 3A and 3B and FIGS. 4A and 4B).

[3] = biological target: T3, MPO (Homo sapiens, UniProt P05164); test: MR imaging at 1.5 T of substrate solutions with MPO; format: biochemical
T3 construct: purchased BioDesign Inc
Procedure: as §1
Because of the relatively higher relaxivity and relatively faster kinetics with MPO, 5-HT-DOTA was chosen for further evaluation by imaging on a clinical 1.5 T MRI scanner. FIGS. 6A-6F and FIGS. 7A-7F illustrate the relative signal changes for typical T1- and T2-weighted images in aqueous solutions with MPO. […] An approximately 40% signal difference was identified at 1300-2000 U (FIGS. 6C-6D), in keeping with the amount of relaxivity shortening found in the relaxation experiments ˜70%).

T2 sequence (P05164 279-745 limits assumed): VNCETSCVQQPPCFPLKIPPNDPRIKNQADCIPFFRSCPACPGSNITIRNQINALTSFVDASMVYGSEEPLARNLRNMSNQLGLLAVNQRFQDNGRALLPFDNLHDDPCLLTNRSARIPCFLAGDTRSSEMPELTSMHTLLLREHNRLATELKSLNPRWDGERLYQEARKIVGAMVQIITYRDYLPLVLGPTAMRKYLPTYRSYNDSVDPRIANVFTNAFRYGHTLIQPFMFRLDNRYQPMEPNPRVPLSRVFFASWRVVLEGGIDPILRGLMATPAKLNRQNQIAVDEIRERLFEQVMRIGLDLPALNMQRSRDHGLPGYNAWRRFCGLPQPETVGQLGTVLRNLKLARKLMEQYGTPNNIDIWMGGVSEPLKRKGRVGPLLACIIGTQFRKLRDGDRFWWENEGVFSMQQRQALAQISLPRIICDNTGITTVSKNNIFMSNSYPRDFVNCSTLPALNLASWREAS
T2 sequence (P05164 165-273 limits assumed): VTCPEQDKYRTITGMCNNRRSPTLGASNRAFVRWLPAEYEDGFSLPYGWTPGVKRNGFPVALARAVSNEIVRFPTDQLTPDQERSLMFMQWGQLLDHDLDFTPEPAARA
T3 sequence (P05164 279-745 limits assumed): as the sequence (P05164 279-745 limits assumed) above
T3 sequence (P05164 165-273 limits assumed): as the sequence (P05164 165-273 limits assumed) above

- fraction of the final relaxation rate obtained within the first 5 minutes [1]: more than 80%
- Pseudo first-order rate constant ([1]; from T1 measurements, mean±SD): 0.01 s⁻¹
- maximum ratio of relaxivity increase between MPO-converted product and substrate ([2]; 0.47 T): 1.9-2 times
- maximum ratio of relaxivity increase between MPO-converted product and substrate ([2]; 1.5 T): 1.6-1.7 times
- T1 shortening relative to that by HRP ([2]; 10 μL of MPO (1.6 mg/ml) vs 1 μL HRP (4 mg/ml)): 100%
- T1 shortening relative to HRP-mediated T1 shortening ([2]; 250-650 U MPO): Approximately 70%
- relaxivity shortening found in the relaxation experiments ([2]; 1300-2000 U): ~70%
- increase in relaxivity of polymer product ([2]; equivalent amount of MPO, clinical imaging strength): 1.7 times
- MPO activity giving visible imaging signal changes [3]: 250 U and 250-650 U
- signal difference between MPO-converted product and substrate solution ([3]; 1300-2000 U): approximately 40%
Structure (SMILES): CC(C(=O)NCC(=O)NCCc1c[nH]c2ccc(O)cc12)N1CCN(CC(=O)[O-])CCN(CC(=O)[O-])CCN(CC(=O)[O-])CC1.[Gd+3] (stereo not shown) [5-HT-DOTA(Gd), Glycylmethyl DOTA(Gd) 5-Hydroxytryptamide]
